Data as given in patent publication US5006549A, “Novel 7-aroyl-4-hydroxy-3-methyl-benzofurans as dual inhibitors of cyclooxygenase and 5-lipoxygenase” (priority 1989, dated 1991).
Like-named read-outs stand apart in the source and are kept apart here. One block for each compound: values may come before it.

Tests used:
[1] = molecular target: T1, Ram seminal vesicle microsomal cyclooxygenase (Ovis aries, UniProt P05979); experiment: Ram Seminal Vesicle Microsomal Cyclooxygenase Assay (RSV CO); type: biochemical; conditions: for IC50: RSV cyclooxygenase, mean values of at least two titrations; for activity in the CO assay: reference compounds
T1 construct: Ram seminal vesicular glands were trimed of excess fat; from tissue; host or cells: ram seminal vesicular glands, microsomes (105K×g pellet)
T1 sequence (P05979 25-600): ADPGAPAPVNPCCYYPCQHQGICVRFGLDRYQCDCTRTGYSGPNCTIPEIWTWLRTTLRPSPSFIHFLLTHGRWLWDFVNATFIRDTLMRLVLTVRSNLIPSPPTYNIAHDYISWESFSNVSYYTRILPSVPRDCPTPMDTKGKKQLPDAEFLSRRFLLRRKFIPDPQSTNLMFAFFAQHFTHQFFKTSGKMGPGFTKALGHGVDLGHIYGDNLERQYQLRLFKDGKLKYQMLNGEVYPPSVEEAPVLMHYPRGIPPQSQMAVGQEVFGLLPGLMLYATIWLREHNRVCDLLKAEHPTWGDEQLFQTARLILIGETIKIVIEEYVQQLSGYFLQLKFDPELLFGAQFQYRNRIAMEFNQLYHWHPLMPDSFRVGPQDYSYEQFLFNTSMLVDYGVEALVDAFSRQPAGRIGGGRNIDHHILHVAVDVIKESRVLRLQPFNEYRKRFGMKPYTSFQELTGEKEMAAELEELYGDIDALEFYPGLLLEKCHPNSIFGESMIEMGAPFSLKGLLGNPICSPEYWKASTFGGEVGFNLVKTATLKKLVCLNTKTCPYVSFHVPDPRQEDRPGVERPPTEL
Procedure: Compounds of formula I were also evaluated in accordance with the ram seminal vesicle microsomal cyclooxygenase (RSV CO) assay.
Ram Seminal Vesicle Microsomal Cyclooxygenase Assay (RSV CO)
Ram seminal vesicular glands were trimed of excess fat, 50 gm diced into ice cold 0.1M potassium phosphate (pH 7.6) buffer and homoginized using a Brinkman Polytron. The suspension was centrifuged 10 min. at 10K×g (4°) and the supernatant filtered through two cheesecloth layers. The filtrate was centrifuged 160 min. at 105K×g. The supernatant was discarded and the pellet surface rinsed with a small volume of buffer. The pellets were combined in a small volume, briefly homoginized with the Polytron and frozen in 0.5 mL aliquots at -80°. The protien concentration was ~50 mg/mL. […] The thawed enzyme was diluted 1:63 with 0.125M sodium EDTA (pH 8.0) containing 50 mg/ml BSA. A substrate cofactor premix was prepared with 66 mL 14C-arachidonic acid (~20K cpm/12.5 mL) in 500 mL 0.125 M sodium EDTA (pH 8.0) plus 10 mL 50 mM hydroquinone and 10 mL 200 mM glutathione. To each sample well in the 96 well plate agents were added disolved in 0.5 mL DMSO followed by 12.5 mL of the diluted enzyme. After a 4 minute preincubation at room temperature 12.5 mL of the substrate cofactor mix was added to start the reaction. The reaction was killed after 20 minutes at room temperature by adding 25 mL methanol containing 200 mg PGE2 and 400 mg AA per mL. The entire reaction mixture was spotted onto a preadsorbent silica gel GF thin layer plate and, after air drying 45 minutes developed 12 cm in ethyl acetate:glacial acetic acid (99:1). The developed lanes were scanned for the distribution of radiolabel using a Bioscan Imaging Detector and the integrated peaks compared to standards and controls yielding percent inhibition.

[2] = tested on: LTB4 production in PMN (LO); experiment: PMN LTB4 Assay (inhibition of LTB4 production in rat PMN); type: cell-based, male Sprague-Dawley rats; conditions: for IC50: leukotriene biosynthesis in rat PMN, mean values of at least two titrations
Procedure: Male Sprague-Dawley rats (~350 g) were injected intraperitoneally the day before use with 8 mL of 12% sodium caseinate. The next day the animals were killed by CO2 asphyxiation and the peritoneal cavity lavaged twice with 20 mL of Hanks balanced salts containing 15 mM HEPES (pH 7.4), 1.4 mM Ca^++ and 0.7 mM Mg^++ (Hepes-Hanks). The suspensions were filtered through plastic mesh and centrifuged at 260×g for 5 minutes. The cells were resuspended in 50 ml Hepes-Hanks and recentrifuged. The PMN pellets were combined and suspended at 1.25×10^7 cells/mL. The cell suspension was diluted 1:10, preincubated 5 minutes at 37° and distributed into 96 well microtiter plates with […]. The wells had previously received samples, controls, ect., in 25 mL of 0.001% fatty acid free BSA in Hepes-Hanks. The plates were incubated 2 min. at 37° and then the cells were stimulated to produce LTB4 by the addition of 25 mL of […]. After 4 minutes the plates were frozen in dry ice. The frozen plates were thawed to 4° and 25 mL aliquots removed to V-well plates. Antibody to LTB4 (50 mL) was added in and after 15 minutes at room temperature, 50 mL of ^3 H-LTB4 was added and the plates were stored overnight at 4° to allow equilibration. The next day the "free" 3HLTB4 was removed by adsorption to dextran coated charcoal ([…]/well of a 4% charcoal suspension with 0.25% Dextran T-70 in 10 mM potassium phosphate (pH 7.3) containing 1 mM EDTA and 0.25 mM thimerasol) durring a 10 minute ice temperature incubation. The charcoal was removed by a 10 minute centrifugation at 260×g. Aliquots of the supernatant were counted in a Packard 460, analyzed in a Masscomp computer (programs "filhariala and fhariasa") and the data reported as percent inhibition of LTB4 production.

[3] = tested on: LTB4 biosynthesis in intact rat PMN; conditions: cited from earlier work
cyclooxygenase [4] = conditions: cited from earlier work
cyclooxygenase [5] = conditions: bovine seminal vesicle microsomal enzyme preparation; read-out: IC50 against cyclooxygenase; cited from earlier work
5-lipoxygenase = conditions: cited from earlier work
[6] = tested on: animal models of inflammation; conditions: several animal models; cited from earlier work

Compound: CC(C)Cc1ccc(C(C)C(=O)O)cc1 (centres unmarked) [ibuprofen, reference compound]
- activity in the CO assay [1]: displaying activity

Compound: Cc1coc2c(C(C)(C)C)cc(C(C)(C)C)c(O)c12 [Compound 10b, 3-Methyl-4-hydroxy-5,7-di-tert-butylbenzofuran]
- inhibition at 10000 µg/mL ([1]; read-out: % inhibition (CO)): 0%
- inhibition at 1000 µg/mL ([2]; Rattus norvegicus, at 1 mg/ml): 37%

Compound: CCCc1cc(Cl)c2oc(Cc3ccccc3)c(C)c2c1O [Compound B]
- IC50 [3]: 240 nM
- potency on cyclooxygenase relative to LTB4 biosynthesis inhibition (selectivity) (cyclooxygenase [4]; RSV CO versus intact rat PMN): a hundred times less potent
- IC50 (cyclooxygenase [4]; RSV CO): 25 µM

Compound: CC(C)(C)c1cc(C(=O)c2cccs2)cc(C(C)(C)C)c1O [A, 2,6-di-tert-butyl-4-(2-thienoyl) phenol]
- IC50 (cyclooxygenase [5]): 500 nM
- potency at inhibiting guinea pig lung 5-lipoxygenase relative to cyclooxygenase (5-lipoxygenase; compared with bovine seminal vesicle cyclooxygenase): fortyfold less potent
- IC50 (5-lipoxygenase; guinea pig lung, read-out: IC50 against guinea pig lung 5-lipoxygenase): 20 µM
- antiinflammatory activity in animal models of inflammation [6]: novel antiinflammatory agent in several animal models of inflammation

Compound: Cc1coc2c(C(C)(C)C)ccc(O)c12 [Compound 10a, 3-Methyl-4-hydroxy-7-tert-butylbenzofuran]
- inhibition at 1000 µg/mL ([1]; read-out: % inhibition (CO)): 1%
- IC50 [2]: 2100 nM

Compound: COc1ccc2c(c1)c(CC(=O)O)c(C)n2C(=O)c1ccc(Cl)cc1 [indomethacin, reference compound]
- activity in the CO assay [1]: displaying activity

Now from value to compound:

- IC50 [1]: 5600 nM
- IC50 [2]: 6700 nM
Compound: C=CCc1cc(C(=O)c2cccs2)c2occ(C)c2c1O [Compound 4, 3-methyl-4-hydroxy-5-(2-propen-1-yl)-7-(2-thienoyl)benzofuran]

- IC50 [1]: 1300 nM
- IC50 [2]: 1700 nM
Compound: CCCc1cc(C(=O)c2cccs2)c2occ(C)c2c1O [Compound 5, 3-Methyl-4-hydroxy-5-propyl-7-(2-thienoyl)benzofuran]

- IC50 [1]: 1200 nM
- IC50 [2]: 4400 nM
Compound: Cc1coc2c(C(=O)c3ccc(Cl)cc3)cc(C(C)(C)C)c(O)c12 [Compound 19, 3-Methyl-4-hydroxy-5-tert-butyl-7-p-chlorobenzoylbenzofuran]

- IC50 [1]: 1300 nM
- IC50 [2]: 1100 nM
Compound: Cc1coc2c(C(=O)c3ccccc3)cc(C(C)(C)C)c(O)c12 [Compound 16, 3-Methyl-4-hydroxy-5-tert-butyl-7-benzoylbenzofuran]

- IC50 [1]: 1300 nM
- IC50 [2]: 3500 nM
Compound: Cc1coc2c(C(=O)c3ccccc3)ccc(O)c12 [Compound 6, 3-Methyl-4-hydroxy-7-benzoylbenzofuran]

- IC50 [1]: 54000 nM
- IC50 [2]: 600 nM
Compound: Cc1coc2ccc(C(C)(C)C)c(O)c12 [Compound 12b, 3-Methyl-4-hydroxy-5-tert-butylbenzofuran]

- IC50 [1]: 800 nM
- IC50 [2]: 2700 nM
Compound: Cc1coc2c(C(=O)c3cccs3)ccc(O)c12 [Compound 3, 3-Methyl-4-hydroxy-7-(2-thienoyl)benzofuran]

- IC50 [1]: 1000 nM
- IC50 [2]: 1500 nM
Compound: Cc1coc2c(C(=O)c3cccs3)cc(C(C)(C)C)c(O)c12 [Compound 14, 3-Methyl-4-hydroxy-5-tert-butyl-7-(2-thienoyl)-benzofuran]
